Test results taken from patent publication US12365655B2, “Compounds” (CTXT PTY LTD, priority 2018, dated 2025).
pIC50: −log10 of the molar value.

Legend:
HBO-KAT7 = HBO-KAT7 (Homo sapiens, UniProt O95251); assay: Acetyltransferase biochemical assay (AlphaScreen), KAT7
TIP60-KAT5 = TIP60-KAT5 (Homo sapiens, UniProt Q92993); assay: Acetyltransferase biochemical assay (AlphaScreen), KAT5
[1] = test system: acetylation of the histone H3 Lysine 14 marker in U2OS cells; assay: Histone H3 Lysine 14 Acetylation Biomarker Assay; format: cell-based; conditions: Homo sapiens, serum free medium, 24 hours incubation, read-out: IC50, inhibition of histone H3 Lysine 14 acetylation
Protocol: Compounds were tested for their ability to inhibit acetylation of the histone H3 Lysine 14 marker in the following assay:
The cell line U2OS was seeded at a density of 3,000 cells per well in 384-well optical quality tissue culture plates in RPMI medium supplemented with 10% foetal bovine serum and 10 mM Hepes. The cells were allowed to adhere for 24 hours under standard culture conditions (37 degree Celsius, 5% CO2). At the end of this period the cells were washed with serum free medium. […] After incubation for 24 hours, the cells were fixed with 4% formaldehyde in PBS for 15 minutes at room temperature, washed with phosphate buffer saline and blocked with blocking buffer containing 0.2% TritonX100 and 2% BSA. Anti-H3K14ac specific antibody (Cell Signalling Technologies) in blocking buffer was added and incubated overnight at 4 degree Celsius. After washing, a secondary antibody labelled with AlexaFluor 488 dye (ThermoFisher) and Hoechst 33342 (1 μg/mL, Life Technologies) were added for 2 hours incubation at room temperature. Plates were washed and read on a PerkinElmer Opera HCS high content imaging platform. Using a Columbus image analysis pipeline, individual nuclei were located by Hoechst 33342 stain and the acetylation level was calculated from the AlexaFluor 488-related intensity in the same area.

MOZ-KAT6A = MOZ-KAT6A (Homo sapiens, UniProt Q92794, A567V); assay: Acetyltransferase biochemical assay (AlphaScreen), KAT6A
Sequence of MOZ-KAT6A (Q92794 with tags, fused parts or gaps A567V): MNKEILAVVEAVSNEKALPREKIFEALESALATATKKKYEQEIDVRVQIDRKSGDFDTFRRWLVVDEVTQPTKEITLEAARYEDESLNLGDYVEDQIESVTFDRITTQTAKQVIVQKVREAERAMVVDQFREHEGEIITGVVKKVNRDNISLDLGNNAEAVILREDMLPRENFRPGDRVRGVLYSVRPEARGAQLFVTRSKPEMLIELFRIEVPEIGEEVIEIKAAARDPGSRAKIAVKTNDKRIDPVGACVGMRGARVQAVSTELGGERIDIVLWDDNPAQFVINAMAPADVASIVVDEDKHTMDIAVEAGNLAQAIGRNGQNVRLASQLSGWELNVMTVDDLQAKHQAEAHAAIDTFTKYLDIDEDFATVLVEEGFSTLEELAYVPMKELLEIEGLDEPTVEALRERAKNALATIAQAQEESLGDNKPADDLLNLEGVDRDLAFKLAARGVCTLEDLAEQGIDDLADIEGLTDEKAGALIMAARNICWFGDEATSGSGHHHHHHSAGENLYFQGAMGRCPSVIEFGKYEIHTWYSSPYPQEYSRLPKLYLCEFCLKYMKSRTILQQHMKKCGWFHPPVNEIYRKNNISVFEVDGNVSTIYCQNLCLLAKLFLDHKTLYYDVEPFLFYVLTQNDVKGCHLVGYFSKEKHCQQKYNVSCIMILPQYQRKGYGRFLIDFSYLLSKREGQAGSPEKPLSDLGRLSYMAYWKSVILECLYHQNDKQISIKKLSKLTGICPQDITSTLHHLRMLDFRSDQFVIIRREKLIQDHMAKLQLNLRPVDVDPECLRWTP

MOF-KAT8 = molecular target: T1, MOF-KAT8 (Homo sapiens, UniProt Q9H7Z6); assay: biochemical
T1 sequence (Q9H7Z6 with tags, fused parts or gaps): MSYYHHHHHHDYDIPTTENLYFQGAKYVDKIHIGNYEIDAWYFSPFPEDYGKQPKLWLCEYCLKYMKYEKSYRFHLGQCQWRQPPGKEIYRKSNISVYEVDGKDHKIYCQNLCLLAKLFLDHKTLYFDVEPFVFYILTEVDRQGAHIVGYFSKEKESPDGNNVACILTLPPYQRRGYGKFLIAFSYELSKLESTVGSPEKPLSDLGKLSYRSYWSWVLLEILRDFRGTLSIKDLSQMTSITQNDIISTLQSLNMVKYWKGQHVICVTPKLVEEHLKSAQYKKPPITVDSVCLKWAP

Sequence of TIP60-KAT5 (Q92993 with tags, fused parts or gaps isoform Q92993-2): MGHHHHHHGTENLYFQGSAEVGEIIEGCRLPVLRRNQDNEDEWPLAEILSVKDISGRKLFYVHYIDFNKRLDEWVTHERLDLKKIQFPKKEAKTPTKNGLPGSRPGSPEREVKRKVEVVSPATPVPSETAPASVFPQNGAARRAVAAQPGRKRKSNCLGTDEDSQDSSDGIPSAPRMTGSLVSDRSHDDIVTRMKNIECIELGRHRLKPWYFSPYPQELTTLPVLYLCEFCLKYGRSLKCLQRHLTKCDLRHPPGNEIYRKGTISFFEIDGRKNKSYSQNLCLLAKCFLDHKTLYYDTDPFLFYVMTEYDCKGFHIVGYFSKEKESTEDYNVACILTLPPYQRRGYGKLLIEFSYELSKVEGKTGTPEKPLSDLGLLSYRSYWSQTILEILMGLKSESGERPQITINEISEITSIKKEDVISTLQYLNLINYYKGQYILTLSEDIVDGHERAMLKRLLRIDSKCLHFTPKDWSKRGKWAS
Sequence of HBO-KAT7 (O95251 with tags, fused parts or gaps): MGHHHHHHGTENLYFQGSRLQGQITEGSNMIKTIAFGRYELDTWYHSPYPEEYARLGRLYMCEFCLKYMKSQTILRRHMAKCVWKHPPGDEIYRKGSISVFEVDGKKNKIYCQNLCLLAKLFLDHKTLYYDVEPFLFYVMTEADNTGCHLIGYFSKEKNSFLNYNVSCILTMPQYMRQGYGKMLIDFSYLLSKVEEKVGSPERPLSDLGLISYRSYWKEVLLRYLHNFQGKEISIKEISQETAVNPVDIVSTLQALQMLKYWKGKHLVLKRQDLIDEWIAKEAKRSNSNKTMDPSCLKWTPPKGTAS

Structure (SMILES) | pIC50 (HBO-KAT7) | pIC50 (TIP60-KAT5) | pIC50 [1] | pIC50 (MOZ-KAT6A) | pIC50 (MOF-KAT8)
COc1ccc(S(=O)(=O)Nc2noc3cccc(OC)c23)c2ncccc12 [Example 74, 5-methoxy-N-(4-methoxybenzo[d]isoxazol-3-yl) quinoline-8-sulfonamide] | 5.78 | 5.09 | 4.50 | 5.41 | –
COc1ccnc2c(S(=O)(=O)Nc3noc4cccc(OC)c34)cccc12 [Example 75, 4-methoxy-N-(4-methoxybenzo[d]isoxazol-3-yl)quinoline-8-sulfonamide] | 5.24 | 4.47 | < 4.40 | 4.63 | –
COc1cccc2onc(NS(=O)(=O)c3cccc4ccc(C)nc34)c12 [Example 80, N-(4-methoxybenzo[d]isoxazol-3-yl)-2-methyl quinoline-8-sulfonamide] | 5.95 | 4.96 | 4.94 | 5.46 | –
COc1cccc2onc(NS(=O)(=O)c3cccc4c3OCCC4)c12 [Example 82, N-(4-methoxybenzo[d]isoxazol-3-yl)chromane-8-sulfonamide] | 5.83 | 5.08 | 4.90 | 5.21 | –
COc1cccc(OC)c1S(=O)(=O)Nc1noc2cc(C(C)OC)cc(OC)c12 (centres unmarked) [Example 93, 2,6-Dimethoxy-N-(4-methoxy-6-(1-methoxyethyl)benzo[d]isoxazol-3-yl)benzenesulfonamide] | 5.55 | 4.28 | – | 6.74 | 4.02
CCc1ccc(OC)c(S(=O)(=O)Nc2noc3cccc(OC)c23)c1OC [Example 94, 3-Ethyl-2,6-dimethoxy-N-(4-methoxybenzo[d]isoxazol-3-yl)benzenesulfonamide] | 4.79 | 3.91 | – | 5.21 | 4.22
COc1cccc(OC)c1S(=O)(=O)Nc1noc2ccc(OC(F)(F)F)cc12 [Example 100, 2,6-Dimethoxy-N-(5-(trifluoromethoxy)benzo [d]isoxazol-3-yl)benzenesulfonamide] | 5.65 | 4.29 | – | 6.01 | 4.20
CCc1cc(S(=O)(=O)Nc2noc3cccc(Cl)c23)c(=O)n(C)c1 [Example 107, N-(4-Chlorobenzo[d]isoxazol-3-yl)-5-ethyl-1-methyl-2-oxo-1,2-dihydropyridine-3-sulfonamide] | 4.93 | 4.13 | – | 4.83 | 4.38
CCOc1ccc2onc(NS(=O)(=O)c3cc(CC)ccc3OC)c2c1 [Example 109] | 5.39 | 4.16 | – | 5.92 | 5.04
CCc1ccc(OC)c(S(=O)(=O)Nc2noc3ccc(OC)cc23)c1 [Example 111, 5-Ethyl-2-methoxy-N-(5-methoxybenzo[d]isoxazol-3-yl)benzenesulfonamide] | 5.34 | 4.57 | – | 6.07 | 5.49
CCOc1cccc2c(NS(=O)(=O)c3cc(CC)ccc3OC)noc12 [Example 132] | 4.93 | 4.28 | – | 5.13 | 4.82
O=S(=O)(Nc1noc2cccc(Cl)c12)c1ccccc1 [Example 151, N-(4-chlorobenzo[d]isoxazol-3-yl)benzenesulfonamide] | 4.59 | < 3.90 | – | 4.55 | 4.46
CCc1ccc(OC)c(S(=O)(=O)Nc2noc3cccc(Cl)c23)c1 [Example 154] | 5.50 | 4.60 | – | 6.29 | 5.59
COCc1cc(OC)c2c(NS(=O)(=O)c3c(OC)cccc3OC)noc2c1Cl [Example 161] | 5.60 | < 3.90 | – | 5.73 | 3.93
COCc1cc(OC)c2c(NS(=O)(=O)c3c(O)cccc3OC)noc2c1 [Example 163, 2-hydroxy-6-methoxy-N-(4-methoxy-6-(methoxymethyl)benzo[d]isoxazol-3-yl)benzenesulfonamide] | 4.88 | < 3.90 | 4.69 | 6.05 | < 3.90
COCc1cc2onc(NS(=O)(=O)c3ccc(OC)nc3)c2cc1C [Example 164, 6-methoxy-N-(6-(methoxymethyl)-5-methylbenzo[d]isoxazol-3-yl)pyridine-3-sulfonamide] | 4.21 | < 3.90 | – | 4.57 | < 3.90
COCc1cc2onc(NS(=O)(=O)c3cccnc3)c2cc1C [Example 165, N-(6-(methoxymethyl)-5-methylbenzo[d]isoxazol-3-yl)pyridine-3-sulfonamide] | 4.51 | < 3.90 | – | 4.00 | < 3.90
COc1ccc(S(=O)(=O)Nc2noc3ccc(C)cc23)c(OC)c1 [Example 170, 2,4-dimethoxy-N-(5-methylbenzo[d]isoxazol-3-yl)benzenesulfonamide] | 6.01 | 5.32 | – | 5.82 | 5.01
COc1ccc(S(=O)(=O)Nc2noc3cc(Br)c(C)cc23)c(OC)c1 [Example 171] | 6.53 | 5.36 | 5.59 | 5.73 | –
CCc1ccc2onc(NS(=O)(=O)c3cc4c(cc3OC)CCCC4)c2c1 [Example 204, N-(5-Ethylbenzo[d]isoxazol-3-yl)-3-methoxy-5,6,7,8-tetrahydronaphthalene-2-sulfonamide] | 5.52 | 5.34 | – | 6.40 | 5.51
COc1cc2c(cc1S(=O)(=O)Nc1noc3ccc(C4CC4)cc13)CCCC2 [Example 205, N-(5-Cyclopropylbenzo[d]isoxazol-3-yl)-3-methoxy-5,6,7,8-tetrahydronaphthalene-2-sulfonamide] | 6.03 | 5.43 | – | 6.94 | 5.46
COc1cc(CNC(C)=O)cc(OC)c1S(=O)(=O)Nc1noc2cccc(OC)c12 [Example 211, N-(3,5-Dimethoxy-4-(N-(4-methoxybenzo[d]isoxazol-3-yl)sulfamoyl)benzyl)acetamide] | 6.04 | 5.10 | < 4.40 | 5.67 | 4.53
COc1cccc(F)c1S(=O)(=O)Nc1noc2cccc(OC)c12 [Example 212, 2-Fluoro-6-methoxy-N-(4-methoxybenzo[d]isoxazol-3-yl)benzenesulfonamide] | 5.98 | 5.03 | 4.99 | 5.67 | –
CNc1cccc(OC)c1S(=O)(=O)Nc1noc2cccc(OC)c12 [Example 214, 2-Methoxy-N-(4-methoxybenzo[d]isoxazol-3-yl)-6-(methylamino)benzenesulfonamide] | < 3.90 | < 3.90 | – | 4.44 | < 3.90
COc1cc(COc2cccc(OC)c2S(=O)(=O)Nc2noc3cccc(OC)c23)ccn1 [Example 216, 2-Methoxy-N-(4-methoxybenzo[d]isoxazol-3-yl)-6-((2-methoxypyridin-4-yl)methoxy)benzenesulfonamide] | 5.51 | 3.91 | – | 6.20 | 4.95
CCOc1cccc(OC)c1S(=O)(=O)Nc1noc2cccc(OC)c12 [Example 218, 2-Ethoxy-6-methoxy-N-(4-methoxybenzo[d]isoxazol-3-yl)benzenesulfonamide] | 5.19 | < 3.90 | < 4.40 | 5.18 | –
COc1cccc(OCC(N)=O)c1S(=O)(=O)Nc1noc2cccc(OC)c12 [Example 219, 2-(3-Methoxy-2-(N-(4-methoxybenzo[d]isoxazol-3-yl)sulfamoyl)phenoxy)acetamide] | 4.22 | < 3.90 | – | 4.48 | 4.16
COc1cccc(OCc2cnn(C)c2)c1S(=O)(=O)Nc1noc2cccc(OC)c12 [Example 221, 2-Methoxy-N-(4-methoxybenzo[d]isoxazol-3-yl)-6-((1-methyl-1H-pyrazol-4-yl)methoxy)benzenesulfonamide] | 4.20 | < 3.90 | – | 4.43 | 4.55
COc1cccc(OC)c1S(=O)(=O)Nc1noc2cccc([N+](=O)[O-])c12 [Example 223, 2,6-Dimethoxy-N-(4-nitrobenzo[d]isoxazol-3-yl)benzenesulfonamide] | 4.36 | < 3.90 | – | 4.59 | 4.37
COc1cccc(OC)c1S(=O)(=O)Nc1noc2cccc(N)c12 [Example 224] | < 3.90 | < 3.90 | – | 4.30 | 3.95
